In patent US12312370B2, “Immunoproteasome inhibitors” (Principia Biopharma Inc., priority 2017, dated 2025):

What was measured:
[1] = molecular target: immunoproteasome LMP7/B5i subunit (Homo sapiens, UniProt P28062); test: Caliper-based proteasome enzymatic activity assay, LMP7; assay type: biochemical; conditions: human recombinant immunoproteasome 0.3 nM, FAM-labeled peptide substrate 1 μM, rt 3 h; read-out: LMP7 subunit IC50
[2] = molecular target: constitutive proteasome β5c unit (Homo sapiens, UniProt P28074); test: Caliper-based proteasome enzymatic activity assay, β5c; assay type: biochemical; conditions: human recombinant constitutive proteasome 0.3 nM, FAM-labeled peptide substrate 1 μM, rt 3 h; read-out: β5c subunit IC50

SMILES	IC50 [1] [µM]	IC50 [2] [µM]
C=CC(=O)N1C[C@@H](F)[C@@H](OC(=O)N[C@@H](Cc2ccccc2)B(O)O)C1 [Example 124, ((R)-1-(((((3S,4R)-1-acryloyl-4-fluoropyrrolidin-3-yl)oxy)carbonyl)amino)-2-phenylethyl)boronic acid]	0.0373	> 5
CC(C)(C=C(C#N)C(=O)N1CCCC[C@@H](OC(=O)N[C@@H](Cc2ccccc2)B(O)O)C1)N1CCOCC1 (single isomer, unassigned) [Example 103]	0.0022	3.18
CC(C)(C=C(C#N)C(=O)N1CCC[C@H](COC(=O)N[C@@H](Cc2ccccc2)B(O)O)C1)N1CCC(F)(F)C1 [Example 53, ((R)-1-(((((S)-1-(2-cyano-4-(3,3-difluoropyrrolidin-1-yl)-4-methylpent-2-enoyl)piperidin-3-yl)methoxy)carbonyl)amino)-2-phenylethyl)boronic acid]	0.0044	> 5
CC(C)(C=C(C#N)C(=O)N1CCC[C@H](OC(=O)N[C@@H](Cc2ccccc2)B(O)O)C1)N1CCN(C2COC2)CC1 [Example 79]	0.0053	2.78
CC(C)(C=C(C#N)C(=O)N1CCO[C@H](CC(=O)N[C@@H](Cc2ccccc2)B(O)O)C1)N1CCC(F)(F)C1 [Example 58, ((R)-1-(2-((R)—4-(2-cyano-4-(3,3-difluoropyrrolidin-1-yl)-4-methylpent-2-enoyl)morpholin-2-yl)acetamido)-2-phenylethyl)boronic acid]	0.01	0.139
CC(C)C=C(C#N)C(=O)N1CCC[C@@H]1COC[C@H](NC(=O)c1cc(Cl)ccc1Cl)C(=O)N[C@@H](Cc1ccccc1)[B-]12OC(=O)C[N+]1(C)CC(=O)O2 (stereo partly drawn) [Example 19, 8-((R)-1-((S)-3-(((R)-1-(2-cyano-4-methylpent-2-enoyl)pyrrolidin-2-yl)methoxy)-2-(2,5-dichlorobenzamido)propanamido)-2-phenylethyl)-4-methyl-2,6-dioxohexahydro-[1,3,2]oxazaborolo[2,3-b][1,3,2]oxazaborol-4-ium-8-uide]	0.0096	0.0156
C=CC(=O)N1CC[C@H]1COC(=O)N[C@@H](Cc1ccccc1)B(O)O [Example 51, ((R)-1-(((((S)-1-acryloylazetidin-2-yl)methoxy)carbonyl)amino)-2-phenylethyl)boronic acid]	0.256	1.43
CC(C)(C=C(C#N)C(=O)N1CCC[C@H](OC(=O)N[C@@H](Cc2ccccc2)B(O)O)C1)N1CCC(F)(F)C1 [Example 60, ((R)-1-(((((S)-1-(2-cyano-4-(3,3-difluoropyrrolidin-1-yl)-4-methylpent-2-enoyl)piperidin-3-yl)oxy)carbonyl)amino)-2-phenylethyl)boronic acid]	0.0014	0.463
COC(=O)N1CCN(C(C)(C)C=C(C#N)C(=O)N2CCC[C@H](OC(=O)N[C@@H](CC3=CCCC3)B(O)O)C2)CC1 [Example 120, ((R)-1-(((((S)-1-(2-cyano-4-(4-(methoxycarbonyl)piperazin-1-yl)-4-methylpent-2-enoyl)piperidin-3-yl)oxy)carbonyl)amino)-2-(cyclopent-1-en-1-yl)ethyl)boronic acid]	0.0116	> 5
CC(C)C=C(C#N)C(=O)N1CCC[C@@H]1COC[C@H](NCC(F)(F)F)C(=O)N[C@@H](CC(C)C)B(O)O [Example 28]	0.046	0.294
C=CS(=O)(=O)N(C)c1cccc(C[C@H](NC(=O)c2cc(Cl)ccc2Cl)C(=O)N[C@@H](Cc2ccccc2)B(O)O)c1 [Example 16, ((R)-1-((S)-2-(2,5-dichlorobenzamido)-3-(3-(N-methylvinylsulfonamido)phenyl)propanamido)-2-phenylethyl)boronic acid]	0.0043	0.0033
CC(C)(C=C(C#N)C(=O)N1CCCC[C@H](OC(=O)N[C@@H](Cc2ccccc2)B(O)O)C1)N1CCC(F)(F)C1 [Example 106, ((R)-1-(((((S)-1-(2-cyano-4-(3,3-difluoropyrrolidin-1-yl)-4-methylpent-2-enoyl)azepan-3-yl)oxy)carbonyl)amino)-2-phenylethyl)boronic acid]	0.0025	2.66
